Measurements: patent publication US7238685B2, “Benzo-fused heterocycles as endothelin antagonists” (Actelion Pharmaceuticals Ltd., priority 2001, dated 2007)
pIC50: −log10 of the molar value. Where two headings read alike, the source gives them in different places.

Experiments:
[1] = biological target: T1, rat aortic rings (ETA receptors) (Rattus norvegicus, UniProt P26684); test: Inhibition of endothelin-1-induced contractions on isolated rat aortic rings
T1 construct: from tissue; host or cells: thoracic aorta rings of adult Wistar rats, endothelium removed
T1 sequence (P26684 21-426): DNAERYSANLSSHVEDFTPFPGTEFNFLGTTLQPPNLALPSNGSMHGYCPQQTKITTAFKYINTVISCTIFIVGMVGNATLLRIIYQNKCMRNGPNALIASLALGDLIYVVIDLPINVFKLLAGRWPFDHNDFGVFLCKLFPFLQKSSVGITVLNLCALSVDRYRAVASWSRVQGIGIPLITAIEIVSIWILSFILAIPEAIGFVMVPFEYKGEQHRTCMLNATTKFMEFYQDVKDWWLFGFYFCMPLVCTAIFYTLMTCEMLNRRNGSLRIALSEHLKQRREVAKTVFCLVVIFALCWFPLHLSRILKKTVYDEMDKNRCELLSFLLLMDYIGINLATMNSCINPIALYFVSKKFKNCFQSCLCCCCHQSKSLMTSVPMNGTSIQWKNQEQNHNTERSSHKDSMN

[2] = biological target: T2, rat tracheal rings (ETB receptors) (Rattus norvegicus, UniProt P21451); test: Inhibition of sarafotoxin S6c-induced contractions on isolated rat tracheal rings
T2 construct: from tissue; host or cells: tracheal rings of adult Wistar rats, epithelium removed
T2 sequence (P21451 27-442): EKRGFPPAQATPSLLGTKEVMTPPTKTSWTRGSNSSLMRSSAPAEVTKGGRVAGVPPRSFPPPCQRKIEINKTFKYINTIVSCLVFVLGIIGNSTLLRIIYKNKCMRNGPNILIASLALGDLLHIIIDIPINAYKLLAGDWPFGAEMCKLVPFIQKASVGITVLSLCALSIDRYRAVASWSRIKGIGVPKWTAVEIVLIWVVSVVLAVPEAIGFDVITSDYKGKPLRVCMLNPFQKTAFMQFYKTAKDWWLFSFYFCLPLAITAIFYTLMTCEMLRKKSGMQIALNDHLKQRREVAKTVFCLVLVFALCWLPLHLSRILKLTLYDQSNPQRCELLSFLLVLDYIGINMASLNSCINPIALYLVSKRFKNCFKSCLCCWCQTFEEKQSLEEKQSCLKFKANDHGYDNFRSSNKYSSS
Procedure: 2) Inhibition of Endothelin-induced Contractions on Isolated Rat Aortic Rings (ETA Receptors) and Rat Tracheal Rings (ETB Receptors):
The functional inhibitory potency of the endothelin antagonists was assessed by their inhibition of the contraction induced by endothelin-1 on rat aortic rings (ETA receptors) and of the contraction induced by sarafotoxin S6c on rat tracheal rings (ETB receptors). Adult Wistar rats were anesthetized and exsanguinated. The thoracic aorta or trachea were excised, dissected and cut in 3–5 mm rings. The endothelium/epithelium was removed by gentle rubbing of the intimal surface. Each ring was suspended in a 10 ml isolated organ bath filled with Krebs-Henseleit solution (in mM; NaCl 115, KCl 4.7, MgSO4 1.2, KH2PO4 1.5, NaHCO3 25, CaCl2 2.5, glucose 10) kept at 37° C. and gassed with 95% O2 and 5% CO2. The rings were connected to force transducers and isometric tension was recorded (EMKA Technologies SA, Paris, France). The rings were stretched to a resting tension of 3 g (aorta) or 2 g (trachea). […] The functional inhibitory potency of the test compound was assessed by calculating the concentration ratio, i.e. the shift to the right of the EC50 induced by different concentrations of test compound. EC50 is the concentration of endothelin needed to get a half-maximal contraction, pA2 is the negative logarithm of the antagonist concentration which induces a two-fold shift in the EC50 value.

[3] = biological target: T3, human recombinant ETB receptors (Homo sapiens, UniProt P24530); test: Inhibition of endothelin binding to membranes from CHO cells carrying human ET receptors (ETB); details: read-out: IC50 ETB
T3 construct: expressed in transfected cells; host or cells: CHO cells (microsomal membranes)
T3 sequence (P24530 27-442): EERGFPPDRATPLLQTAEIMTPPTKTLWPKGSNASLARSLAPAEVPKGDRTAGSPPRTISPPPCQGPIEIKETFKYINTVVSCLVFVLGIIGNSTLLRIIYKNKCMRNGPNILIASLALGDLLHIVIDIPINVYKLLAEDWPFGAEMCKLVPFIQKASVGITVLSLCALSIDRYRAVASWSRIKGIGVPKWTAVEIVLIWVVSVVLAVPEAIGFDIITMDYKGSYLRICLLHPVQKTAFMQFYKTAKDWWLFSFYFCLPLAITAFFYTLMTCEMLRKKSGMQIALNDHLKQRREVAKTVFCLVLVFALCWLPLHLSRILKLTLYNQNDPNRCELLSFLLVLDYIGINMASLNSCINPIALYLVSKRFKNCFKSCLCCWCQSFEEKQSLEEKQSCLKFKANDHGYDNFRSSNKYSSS

[4] = biological target: T4, human recombinant ETA receptors (Homo sapiens, UniProt P25101); test: Inhibition of endothelin binding to membranes from CHO cells carrying human ET receptors (ETA); details: read-out: IC50 ETA
T4 construct: expressed in transfected cells; host or cells: CHO cells (microsomal membranes)
T4 sequence (P25101 21-427): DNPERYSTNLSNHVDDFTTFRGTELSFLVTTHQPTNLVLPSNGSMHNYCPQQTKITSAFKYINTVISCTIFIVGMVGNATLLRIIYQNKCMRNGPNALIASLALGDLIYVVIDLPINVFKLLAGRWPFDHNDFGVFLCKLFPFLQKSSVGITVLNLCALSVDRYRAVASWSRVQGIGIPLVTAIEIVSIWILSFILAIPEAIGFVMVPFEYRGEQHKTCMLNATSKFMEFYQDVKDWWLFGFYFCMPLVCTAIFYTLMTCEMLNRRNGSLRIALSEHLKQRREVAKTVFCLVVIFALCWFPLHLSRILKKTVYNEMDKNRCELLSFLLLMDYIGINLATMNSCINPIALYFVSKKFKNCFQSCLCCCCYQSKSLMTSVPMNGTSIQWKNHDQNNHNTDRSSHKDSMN

SMILES: COc1cc(OC)nc(O[C@H](C(=O)O)[C@@]2(c3ccccc3)NCC(=O)N(Cc3c(F)cc(F)cc3F)c3ccccc32)n1 (racemic) [Example 48]
- Kb ([1]; read-out: pA2 (aortic rings) (converted)): 6.46 nM
- Kb [2]: 525 nM

SMILES: Cc1cc(C)nc(O[C@H](C(=O)O)[C@@]2(c3ccccc3)NCC(=O)N(Cc3c(F)cc(F)cc3F)c3ccccc32)n1 (racemic) [Example 107, (±)-(S*)-(4,6-dimethyl-pyrimidin-2-yloxy)-[(5S*)-2-oxo-5-phenyl-1-(2,4,6-trifluoro-benzyl)-2,3,4,5-tetrahydro-1H-benzo[e][1,4]diazepin-5-yl]-acetic acid]
- Kb [1]: 6.61 nM
- pIC50 [3]: 7.38
- pIC50 [4]: 9.00
- Kb [2]: 661 nM

SMILES: Cc1cc(C)nc(O[C@H](C(=O)O)[C@@]2(c3ccccc3)NCC(=O)N(Cc3c(Cl)cccc3Cl)c3ccccc32)n1 (racemic) [Example 115]
- Kb [1]: 2.82 nM
- pIC50 [3]: 8.52
- pIC50 [4]: 9.00
- Kb [2]: 27.5 nM

SMILES: Cc1cc(C)nc(O[C@H](C(=O)O)[C@@]2(c3cccc(-c4ccccc4)c3)NCC(=O)N(Cc3c(F)cc(F)cc3F)c3ccccc32)n1 (racemic) [Example 211, (±)-(S*)-[(5S*)-5-biphenyl-3-yl-2-oxo-1-(2,4,6-trifluoro-benzyl)-2,3,4,5-tetrahydro-1H-benzo[e][1,4]di-azepin-5-yl]-(4,6-dimethyl-pyrimidin-2-yloxy)-acetic acid]
- Kb [1]: 0.912 nM
- pIC50 [3]: 7.21
- pIC50 [4]: 8.22
- Kb [2]: 85.1 nM
